This experiment concerns the target T1, human vasopressin V1b receptor (Homo sapiens, UniProt P47901).
T1 construct: expressed in transfected cells; host or cells: CHO-K1 (cell line hV1b-3H2_CHO), membrane preparation
T1 sequence (P47901 1-424): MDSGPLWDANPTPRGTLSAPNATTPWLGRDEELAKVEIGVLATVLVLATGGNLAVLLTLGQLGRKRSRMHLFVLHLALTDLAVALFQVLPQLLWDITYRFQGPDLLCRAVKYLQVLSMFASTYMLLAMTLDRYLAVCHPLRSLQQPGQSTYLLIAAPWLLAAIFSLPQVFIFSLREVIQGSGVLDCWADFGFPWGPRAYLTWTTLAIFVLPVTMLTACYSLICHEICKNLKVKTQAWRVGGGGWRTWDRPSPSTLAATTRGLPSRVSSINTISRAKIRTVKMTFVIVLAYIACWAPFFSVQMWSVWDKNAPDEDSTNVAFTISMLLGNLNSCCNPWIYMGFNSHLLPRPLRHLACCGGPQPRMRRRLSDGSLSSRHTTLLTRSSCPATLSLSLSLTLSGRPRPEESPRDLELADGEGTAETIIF
As to the kind of experiment: Vasopressin V1b receptor binding assay. To be noted: membranes from CHO-K1 cells with stably expressed human V1b receptors; displacement of 1.5 nM 3H-AVP; read-out: V1b receptor affinity (affinity constant Ki). As to the method:
Vasopressin V1b Receptor Binding Assay:
The test substances were dissolved in a concentration of 10^−2 M in DMSO and further diluted to 5×10^−4 M to 5×10^−9 M in DMSO. This series of DMSO predilutions was diluted 1:10 with assay buffer. The substance concentration was again diluted 1:5 in the assay mixture (2% DMSO in the mixture).
The membrane pellet was again homogenized and centrifuged as described and then taken up in 50 mM Tris-HCl, pH 7.4, homogenized and stored in aliquots frozen in liquid nitrogen at −190° C.
The incubation buffer was: 50 mM Tris, 10 mM MgCl2, 0.1% BSA, pH 7.4. […] The nonspecific binding was determined with 1 uM AVP (Bachem #H1780). All determinations were carried out as triplicate determinations. After incubation (60 minutes at room temperature), the free radioligand was removed by vacuum filtration (Skatron cell harvester 7000) through Wathman GF/B glass fiber filter mats, and the filters were transferred into scintillation vials. The liquid scintillation measurement took place in a Tricarb model 2000 or 2200CA instrument (Packard). Conversion of the measured cpm into dpm was carried out with the aid of a standard quench series.
The binding parameters were calculated by nonlinear regression in SAS.
The above assay was used to measure the affinities of the compounds of the invention for the human vasopressin V1b receptor and to determine the affinity constants (Ki).
Turning to `CN1CCC(N2CCN(C(=O)C(c3ccccc3)n3c(=O)n(S(=O)(=O)c4cccc5cccnc45)c4cc(Cl)c(Cl)cc43)CC2)CC1` (stereo not shown) [Example 35, 5,6-Dichloro-1-{2-[4-(1-methylpiperidin-4-yl)piperazin-1-yl]-2-oxo-1-phenylethyl}-3-(quinoline-8-sulfonyl)-1,3-dihydrobenzimidazol-2-one], the Ki fell in the range of 500 to 10000 nM.

`COc1ccc(S(=O)(=O)n2c(=O)n(C(C(=O)N3CCN(C4CCN(C)CC4)CC3)c3ccccc3)c3cc(Cl)c(Cl)cc32)cc1` (stereo not shown) [Example 36, 5,6-Dichloro-1-(4-methoxybenzenesulfonyl)-3-{2-[4-(1-methylpiperidin-4-yl)piperazin-1-yl]-2-oxo-1-phenylethyl}-1,3-dihydrobenzimidazol-2-one]: the Ki is 500 to 10000 nM. Turning to `COc1ccc(S(=O)(=O)n2c(=O)n(C(C(=O)N3CCN(C4CCN(C)CC4)CC3)c3ccccc3)c3ccc(Cl)cc32)c(OC)c1` (stereo not shown) [Example 37, 5-Chloro-3-(2,4-dimethoxybenzenesulfonyl)-1-{2-[4-(1-methylpiperidin-4-yl)piperazin-1-yl]-2-oxo-1-phenylethyl}-1,3-dihydrobenzimidazol-2-one], the Ki lay in the range of 500 to 10000 nM. In the case of `COc1ccc(S(=O)(=O)n2c(=O)n(C(C(=O)N3CCN(C4CCN(C)CC4)CC3)c3ccccc3)c3ccc(Cl)cc32)cc1` (stereo not shown) [Example 38, 5-Chloro-3-(4-methoxybenzenesulfonyl)-1-{2-[4-(1-methylpiperidin-4-yl)piperazin-1-yl]-2-oxo-1-phenylethyl}-1,3-dihydrobenzimidazol-2-one], the Ki fell in the range of 100 to 500 nM. With `CN1CCC(N2CCN(C(=O)C(c3ccccc3)n3c(=O)n(S(=O)(=O)c4ccc(C#N)cc4)c4cc(Cl)ccc43)CC2)CC1` (stereo not shown) [Example 39, 4-(6-Chloro-3-{2-[4-(1-methylpiperidin-4-yl)piperazin-1-yl]-2-oxo-1-phenylethyl}-2-oxo-2,3-dihydrobenzimidazole-1-sulfonyl)benzonitrile], the Ki is 500 to 10000 nM.

With `O=C(C(c1ccccc1)n1c(=O)n(S(=O)(=O)c2cccc3cccnc23)c2cc(Cl)c(Cl)cc21)N1CCN(c2ccncc2)CC1` (stereo not shown) [Example 40, 5,6-Dichloro-1-[2-oxo-1-phenyl-2-(4-pyridin-4-ylpiperazin-1-yl)ethyl]-3-(quinoline-8-sulfonyl)-1,3-dihydrobenzimidazol-2-one], the Ki is 500 to 10000 nM. With `COc1ccc(S(=O)(=O)n2c(=O)n(C(C(=O)N3CCN(c4ccncc4)CC3)c3ccccc3)c3ccccc32)cc1` (stereo not shown) [Example 41, 1-(4-Methoxybenzenesulfonyl)-3-[2-oxo-1-phenyl-2-(4-pyridin-4-ylpiperazin-1-yl)ethyl]-1,3-dihydrobenzimidazol-2-one], the Ki was in the range of 500 to 10000 nM. `O=C(C(c1ccccc1)n1c(=O)n(S(=O)(=O)c2ccc(OC(F)(F)F)cc2)c2ccc(Cl)cc21)N1CCN(c2ccncc2)CC1` (stereo not shown) [Example 42, 5-Chloro-3-[2-oxo-1-phenyl-2-(4-pyridin-4-ylpiperazin-1-yl)ethyl]-1-(4-trifluoromethoxybenzenesulfonyl)-1,3-dihydrobenzimidazol-2-one]: the Ki was in the range of 500 to 10000 nM. On to `COc1cc(C)ccc1S(=O)(=O)n1c(=O)n(C(C(=O)N2CCN(c3ccncc3)CC2)c2ccccc2)c2cc(Cl)ccc21` (stereo not shown) [Example 43, 5-Chloro-1-(2-methoxy-4-methyl-benzenesulfonyl)-3-[2-oxo-1-phenyl-2-(4-pyridin-4-ylpiperazin-1-yl)ethyl]-1,3-dihydrobenzimidazol-2-one], for which the Ki fell in the range of 500 to 10000 nM. With `O=C(C(c1ccccc1)n1c(=O)n(S(=O)(=O)c2cccs2)c2ccc(Cl)cc21)N1CCN(c2ccncc2)CC1` (stereo not shown) [Example 44, 5-Chloro-3-[2-oxo-1-phenyl-2-(4-pyridin-4-ylpiperazin-1-yl)ethyl]-1-(thiophene-2-sulfonyl)-1,3-dihydrobenzimidazol-2-one], the Ki lay within 100 to 500 nM.

`COc1ccccc1S(=O)(=O)n1c(=O)n(C(C(=O)N2CCN(c3ccncc3)CC2)c2ccccc2)c2cc(Cl)ccc21` (stereo not shown) [Example 45, 5-Chloro-1-(2-methoxybenzenesulfonyl)-3-[2-oxo-1-phenyl-2-(4-pyridin-4-ylpiperazin-1-yl)ethyl]-1,3-dihydrobenzimidazol-2-one]: the Ki lay in the range of 100 to 500 nM. To `COc1ccc(S(=O)(=O)n2c(=O)n(C(C(=O)N3CCN(c4ccncc4)CC3)c3ccccc3)c3cc(C#N)ccc32)cc1` (stereo not shown) [Example 46, 1-(4-Methoxybenzenesulfonyl)-2-oxo-3-[2-oxo-1-phenyl-2-(4-pyridin-4-ylpiperazin-1-yl)ethyl]-2,3-dihydro-1H-benzimidazole-5-carbonitrile] belongs 100 to 500 nM; to `O=C(C(c1ccccc1)n1c(=O)n(S(=O)(=O)c2ccccc2)c2ccc(Cl)cc21)N1CCN(c2ccncc2)CC1` (stereo not shown) [Example 47, 1-Benzenesulfonyl-5-chloro-3-[2-oxo-1-phenyl-2-(4-pyridin-4-ylpiperazin-1-yl)ethyl]-1,3-dihydrobenzimidazol-2-one], 100 to 500 nM. For the compound `COc1ccc(S(=O)(=O)n2c(=O)n(C(C(=O)N3CCN(c4ccncc4)CC3)c3ccccc3)c3cc(C#N)ccc32)c(OC)c1` (stereo not shown) [Example 48, 1-(2,4-Dimethoxybenzenesulfonyl)-2-oxo-3-[2-oxo-1-phenyl-2-(4-pyridin-4-ylpiperazin-1-yl)-ethyl]-2,3-dihydro-1H-benzimidazole-5-carbonitrile], the inhibitory constant (Ki) lay within 500 to 10000 nM.

With `O=C(C(c1ccccc1)n1c(=O)n(S(=O)(=O)c2ccc(C(F)(F)F)cc2)c2ccc(Cl)cc21)N1CCN(c2ccncc2)CC1` (stereo not shown) [Example 49, 5-Chloro-3-[2-oxo-1-phenyl-2-(4-pyridin-4-ylpiperazin-1-yl)ethyl]-1-(4-trifluoromethylbenzenesulfonyl)-1,3-dihydrobenzimidazol-2-one], the Ki was in the range of 500 to 10000 nM. `N#Cc1ccc2c(c1)n(C(C(=O)N1CCN(c3ccncc3)CC1)c1ccccc1)c(=O)n2S(=O)(=O)c1cccc2cccnc12` (stereo not shown) [Example 50, 2-Oxo-3-[2-oxo-1-phenyl-2-(4-pyridin-4-ylpiperazin-1-yl)ethyl]-1-(quinoline-8-sulfonyl)-2,3-dihydro-1H-benzimidazole-5-carbonitrile]: the Ki is 500 to 10000 nM.

Take `N#Cc1ccc(S(=O)(=O)n2c(=O)n(C(C(=O)N3CCN(c4ccncc4)CC3)c3ccccc3)c3cc(C#N)ccc32)cc1` (stereo not shown) [Example 51, 1-(4-Cyanobenzenesulfonyl)-2-oxo-3-[2-oxo-1-phenyl-2-(4-pyridin-4-ylpiperazin-1-yl)ethyl]-2,3-dihydro-1H-benzimidazole-5-carbonitrile]: the Ki lay in the range of 500 to 10000 nM.

Turning to `CCCN1CCN(C2CCN(C(=O)C(c3ccccc3)n3c(=O)n(S(=O)(=O)c4ccc(OC)cc4)c4ccc(C#N)cc43)C2)CC1` (stereo not shown) [Example 52, 1-(4-Methoxybenzenesulfonyl)-2-oxo-3-{2-oxo-1-phenyl-2-[3-(4-propylpiperazin-1-yl)-pyrrolidin-1-yl]-ethyl}-2,3-dihydro-1H-benzimidazole-5-carbonitrile], the Ki was less than 100 nM. For the compound `O=C(C(c1ccccc1)n1c(=O)n(S(=O)(=O)c2cccc3cccnc23)c2ccc(Cl)cc21)N1CCN(c2ccncc2)CC1` (stereo not shown) [Example 53, 5-Chloro-3-[2-oxo-1-phenyl-2-(4-pyridin-4-ylpiperazin-1-yl)ethyl]-1-(quinoline-8-sulfonyl)-1,3-dihydrobenzimidazol-2-one], the inhibition constant Ki is less than 100 nM. Consider `COc1ccc(S(=O)(=O)n2c(=O)n(C(C(=O)N3CCN(C4CCN(C)CC4)CC3)c3ccccc3)c3cc(Cl)ccc32)cc1` (stereo not shown) [Example 55, 5-Chloro-1-(4-methoxybenzenesulfonyl)-3-{2-[4-(1-methylpiperidin-4-yl)piperazin-1-yl]-2-oxo-1-phenylethyl}-1,3-dihydrobenzimidazol-2-one], for which the Ki is 100 to 500 nM. Consider `COc1ccc(S(=O)(=O)n2c(=O)n(C(C(=O)N3CCN(c4ccncc4)CC3)c3ccccc3)c3cc(Cl)ccc32)c(OC)c1` (stereo not shown) [Example 56, 5-Chloro-1-(2,4-dimethoxybenzenesulfonyl)-3-[2-oxo-1-phenyl-2-(4-pyridin-4-ylpiperazin-1-yl)-ethyl]-1,3-dihydrobenzimidazol-2-one], for which the Ki fell in the range of 100 to 500 nM. `N#Cc1ccc(S(=O)(=O)n2c(=O)n(C(C(=O)N3CCN(c4ccncc4)CC3)c3ccccc3)c3cc(Cl)ccc32)cc1` (stereo not shown) [Example 57, 4-{5-Chloro-2-oxo-3-[2-oxo-1-phenyl-2-(4-pyridin-4-ylpiperazin-1-yl)-ethyl]-2,3-dihydrobenzimidazole-1-sulfonyl}-benzonitrile]: the Ki was less than 100 nM.

One may read the Ki as the equilibrium dissociation constant of an inhibitor or competing ligand from its target.

(Values after US8791148B2, “Substituted benzimidazolone derivatives, medicaments comprising them and their use” (AbbVie Deutschland GmbH & Co. KG, priority 2006, dated 2014).)
